The target in data set [1] is T1, TEAD2 (Homo sapiens (Human), UniProt Q15562). The data set is described as follows: biochemical.
For another data set, the target named is TEAD3 (Homo sapiens (Human), UniProt Q99594). The data set is described as follows: TR-FRET lipid pocket probe competition assay (Lipid HTRF), TEAD3. It is filed as binding. For orientation: In TR-FRET formats the signal depends on donor and acceptor labels being close together.
The target of the next data set is TEAD1 (Homo sapiens (Human), UniProt P28347). The experiment in a line: TR-FRET lipid pocket probe competition assay (Lipid HTRF), TEAD1.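 Further: His-tagged TEAD1 with biotinylated probe, detected via Europium anti-His and XL665 streptavidin, probe displacement lowers TR-FRET signal, IC50 from four-parameter nonlinear fit.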 It is filed as binding.
Sequence of TEAD1 (P28347 whole entry, species assumed): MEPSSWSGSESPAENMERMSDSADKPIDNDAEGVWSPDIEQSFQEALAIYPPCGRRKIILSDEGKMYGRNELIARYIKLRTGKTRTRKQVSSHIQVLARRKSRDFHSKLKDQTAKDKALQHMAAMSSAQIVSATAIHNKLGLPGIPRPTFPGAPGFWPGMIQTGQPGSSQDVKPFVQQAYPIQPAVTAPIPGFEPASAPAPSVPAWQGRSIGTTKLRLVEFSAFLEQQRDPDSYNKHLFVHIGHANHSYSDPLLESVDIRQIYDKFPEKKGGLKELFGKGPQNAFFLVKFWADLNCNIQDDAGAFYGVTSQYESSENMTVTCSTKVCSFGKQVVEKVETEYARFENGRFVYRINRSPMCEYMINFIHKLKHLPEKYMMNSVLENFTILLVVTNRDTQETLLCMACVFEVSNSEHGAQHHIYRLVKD
For a further data set, the target named is TEAD4 (Homo sapiens (Human), UniProt Q15561). The data set is described as follows: TR-FRET lipid pocket probe competition assay (Lipid HTRF), TEAD4.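 Further: His-tagged TEAD4 with biotinylated lipid-pocket probe, read by Europium anti-His and XL665 streptavidin, where probe displacement lowers the TR-FRET signal, IC50 from a four-parameter fit.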 It is filed as binding.
Sequence of TEAD4 (Q15561 whole entry, species assumed): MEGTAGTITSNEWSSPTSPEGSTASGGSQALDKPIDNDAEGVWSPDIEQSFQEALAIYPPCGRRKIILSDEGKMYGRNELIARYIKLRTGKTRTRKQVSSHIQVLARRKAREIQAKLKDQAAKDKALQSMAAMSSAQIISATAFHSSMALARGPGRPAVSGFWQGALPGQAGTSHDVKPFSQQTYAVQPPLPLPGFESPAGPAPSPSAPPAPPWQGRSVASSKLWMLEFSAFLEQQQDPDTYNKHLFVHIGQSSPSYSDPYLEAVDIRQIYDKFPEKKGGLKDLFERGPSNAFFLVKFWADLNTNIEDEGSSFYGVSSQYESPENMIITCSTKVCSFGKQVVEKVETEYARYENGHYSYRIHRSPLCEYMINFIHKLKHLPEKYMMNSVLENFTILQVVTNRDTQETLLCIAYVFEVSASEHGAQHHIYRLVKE
For a further data set, the target named is hNav1.5 sodium channels (Homo sapiens (Human), UniProt Q14524). The experiment in a line: Cloned hNav1.5 sodium channels expressed in CHO cells, QPatch HT automated patch clamp. It is filed as cell-based. (In patch-clamp work, channel activity is measured electrically.)
Sequence of hNav1.5 sodium channels (Q14524 whole entry): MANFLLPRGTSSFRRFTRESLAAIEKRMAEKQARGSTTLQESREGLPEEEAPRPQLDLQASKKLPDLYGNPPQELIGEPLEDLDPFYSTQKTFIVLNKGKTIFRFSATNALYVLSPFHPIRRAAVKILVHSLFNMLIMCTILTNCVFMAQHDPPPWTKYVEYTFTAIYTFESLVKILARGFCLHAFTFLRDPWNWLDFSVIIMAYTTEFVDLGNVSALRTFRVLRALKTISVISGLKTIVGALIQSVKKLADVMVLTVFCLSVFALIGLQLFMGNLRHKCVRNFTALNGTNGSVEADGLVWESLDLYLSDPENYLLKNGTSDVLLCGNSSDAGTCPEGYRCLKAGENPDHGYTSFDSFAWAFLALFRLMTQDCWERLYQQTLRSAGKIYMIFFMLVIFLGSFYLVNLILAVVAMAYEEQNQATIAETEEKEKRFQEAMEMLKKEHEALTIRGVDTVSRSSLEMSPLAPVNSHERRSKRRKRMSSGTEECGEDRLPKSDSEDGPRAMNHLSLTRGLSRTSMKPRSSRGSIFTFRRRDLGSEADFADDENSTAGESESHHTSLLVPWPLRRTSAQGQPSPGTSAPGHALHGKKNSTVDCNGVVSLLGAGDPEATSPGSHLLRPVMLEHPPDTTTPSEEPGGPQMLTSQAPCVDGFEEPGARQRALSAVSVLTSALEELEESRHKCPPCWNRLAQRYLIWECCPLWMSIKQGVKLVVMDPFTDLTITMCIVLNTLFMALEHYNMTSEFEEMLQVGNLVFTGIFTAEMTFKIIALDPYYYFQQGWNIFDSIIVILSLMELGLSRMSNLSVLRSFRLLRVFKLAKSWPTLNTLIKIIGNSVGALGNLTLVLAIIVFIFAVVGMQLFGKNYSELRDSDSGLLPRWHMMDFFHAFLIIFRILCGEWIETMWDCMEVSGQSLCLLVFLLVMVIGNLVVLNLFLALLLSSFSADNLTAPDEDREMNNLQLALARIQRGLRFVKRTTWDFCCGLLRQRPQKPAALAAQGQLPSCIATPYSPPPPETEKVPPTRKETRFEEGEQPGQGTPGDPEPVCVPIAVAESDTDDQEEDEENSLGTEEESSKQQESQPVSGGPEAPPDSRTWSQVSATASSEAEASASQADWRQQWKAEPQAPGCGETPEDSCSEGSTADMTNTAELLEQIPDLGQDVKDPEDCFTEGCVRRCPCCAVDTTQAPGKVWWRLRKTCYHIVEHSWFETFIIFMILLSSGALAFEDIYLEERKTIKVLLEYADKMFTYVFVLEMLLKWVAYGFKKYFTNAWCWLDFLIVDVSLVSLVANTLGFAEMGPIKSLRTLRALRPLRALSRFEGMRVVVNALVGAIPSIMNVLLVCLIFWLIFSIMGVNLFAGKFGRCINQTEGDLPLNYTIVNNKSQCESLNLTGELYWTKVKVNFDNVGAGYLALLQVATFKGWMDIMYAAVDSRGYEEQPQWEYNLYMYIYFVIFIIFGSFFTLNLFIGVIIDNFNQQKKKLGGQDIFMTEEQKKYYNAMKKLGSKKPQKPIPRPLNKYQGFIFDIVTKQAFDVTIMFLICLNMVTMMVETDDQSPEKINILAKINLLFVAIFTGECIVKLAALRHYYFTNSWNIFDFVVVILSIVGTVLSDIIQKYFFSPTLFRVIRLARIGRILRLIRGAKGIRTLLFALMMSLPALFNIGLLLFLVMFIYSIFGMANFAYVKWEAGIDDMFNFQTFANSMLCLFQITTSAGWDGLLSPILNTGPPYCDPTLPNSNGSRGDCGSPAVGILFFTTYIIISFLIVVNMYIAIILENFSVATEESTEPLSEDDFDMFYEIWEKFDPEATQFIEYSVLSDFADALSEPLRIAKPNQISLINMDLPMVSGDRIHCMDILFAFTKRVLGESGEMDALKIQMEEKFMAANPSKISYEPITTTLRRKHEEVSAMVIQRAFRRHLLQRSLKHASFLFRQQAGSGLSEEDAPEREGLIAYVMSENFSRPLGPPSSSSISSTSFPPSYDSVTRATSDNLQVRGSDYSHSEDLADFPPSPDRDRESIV
Data set [2] concerns the target T1, TEAD2.
Where [3] appears, read: 4 hours pre-incubation, read-out: Lipid HTRF TEAD3 IC50.
Where [4] appears, read: 4 hours pre-incubation, read-out: Lipid HTRF TEAD1 IC50.
Where [5] appears, read: 4 hours pre-incubation, read-out: Lipid HTRF TEAD4 IC50.

From US12110276B2 (Genentech, Inc., priority 2021, dated 2024) come the findings set out here.

The IC50 is the concentration that gives 50% inhibition.

Where two headings read alike, the source gives them in different places.

T1 sequence (Q15562 whole entry, species assumed): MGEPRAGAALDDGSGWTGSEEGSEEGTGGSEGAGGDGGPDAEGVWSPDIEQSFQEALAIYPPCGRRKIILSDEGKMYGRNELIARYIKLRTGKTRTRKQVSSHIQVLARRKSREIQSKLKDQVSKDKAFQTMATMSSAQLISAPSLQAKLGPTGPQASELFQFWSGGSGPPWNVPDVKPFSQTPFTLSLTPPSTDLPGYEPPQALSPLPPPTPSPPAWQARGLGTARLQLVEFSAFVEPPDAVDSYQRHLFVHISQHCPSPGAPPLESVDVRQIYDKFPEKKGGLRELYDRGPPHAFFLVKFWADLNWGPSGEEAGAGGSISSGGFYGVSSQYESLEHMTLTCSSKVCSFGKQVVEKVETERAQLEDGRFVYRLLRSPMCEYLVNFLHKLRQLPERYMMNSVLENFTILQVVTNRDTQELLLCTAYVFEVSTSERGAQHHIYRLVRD
Sequence of TEAD3 (Q99594 whole entry, species assumed): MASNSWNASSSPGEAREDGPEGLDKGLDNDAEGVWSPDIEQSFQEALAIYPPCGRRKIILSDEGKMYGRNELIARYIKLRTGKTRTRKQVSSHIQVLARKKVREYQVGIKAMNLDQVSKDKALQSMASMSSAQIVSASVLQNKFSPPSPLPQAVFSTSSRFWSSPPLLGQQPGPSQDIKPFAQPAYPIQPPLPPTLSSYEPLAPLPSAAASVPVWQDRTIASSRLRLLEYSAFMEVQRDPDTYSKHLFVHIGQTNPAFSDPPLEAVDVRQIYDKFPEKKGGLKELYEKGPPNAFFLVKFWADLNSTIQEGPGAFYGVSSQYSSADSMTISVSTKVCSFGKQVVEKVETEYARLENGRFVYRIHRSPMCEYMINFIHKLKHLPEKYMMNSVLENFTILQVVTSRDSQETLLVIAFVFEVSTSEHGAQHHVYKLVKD
Method for hNav1.5 sodium channels: Example 183 A: Effects of Test Article on Cloned hNav1.5 Sodium Channels Expressed in Mammalian Cells
Chinese hamster ovary (CHO) cells expressing cloned hNav1.5 sodium channels (hNav1.5, encoded by the human SCNSA gene) are responsible for INa sodium channel current. From a 10 mM stock solution, test article was diluted to make a 1 mM, 0.1 mM, and 0.01 mM sub stock, which were stored frozen. All chemicals used in solution preparation were purchased from Sigma-Aldrich (St. Louis, MO) and were of ACS reagent grade purity or higher. Stock solutions of the test articles and the positive control were prepared in dimethyl sulfoxide (DMSO) and stored frozen. Test article and positive control concentrations were prepared fresh daily by diluting stock solutions into a HEPES-buffered physiological saline (HB-PS) solution (composition in mM): NaCl, 137; KCl, 4.0; CaCl2, 1.8; MgCl2, 1; HEPES, 10; Glucose, 10; pH adjusted to 7.4 with NaOH (refrigerated until use). […] Each test article formulation was sonicated (Model 2510/5510, Branson Ultrasonics, Danbury, CT) at room temperature for 20 minutes to facilitate dissolution. In preparation for the recording session, a glass-lined 96-well compound plate was loaded with the appropriate amounts of test and control solutions and placed in the plate well of the QPatch HT® (Sophion Bioscience A/S, Denmark), an automatic parallel patch clamp system. […]

For `C=CC(=O)NCc1nn(-c2ccc(S(F)(F)(F)(F)F)cc2)c2nccc([C@@H](O)CO)c12` (stereo in doubt) [Compound 27, N-((4-(1,2-dihydroxyethyl)-1-(4-(pentafluoro-λ^6-sulfanyl)phenyl)-1H-pyrazolo[3,4-b]pyridin-3-yl)methyl)acrylamide], the IC50 on TEAD2 [1] was determined as 270 nM; on TEAD3 (setting [3]), 1100 nM; at TEAD1 (setting [4]) it was 290 nM; at TEAD4 (setting [5]), 71 nM.

On to `[2H]C([2H])=C([2H])C(=O)NCc1nn(-c2ccc(OC(F)(F)F)cc2)c2nccc([C@H](O)CO)c12` [Compound 154, (S)-N-((4-(1,2-Dihydroxyethyl)-1-(4-(trifluoromethoxy)phenyl)-1H-pyrazolo[3,4-b]pyridin-3-yl)methyl)acrylamide-2,3,3-d3], for which the IC50 came out at 36 nM against TEAD2 [1], 1200 nM at TEAD3, 44 nM on TEAD1 and 22 nM at TEAD4.

Regarding `C=CC(=O)NCc1nn(-c2cccc(OC(F)(F)F)c2)c2nccc([C@@H](O)CO)c12` (stereo in doubt) [Compound 131, N-((4-(1,2-dihydroxyethyl)-1-(3-(trifluoromethoxy)phenyl)-1H-pyrazolo[3,4-b]pyridin-3-yl)methyl)acrylamide], the IC50 at TEAD2 [1] is 89 nM; at TEAD3 (setting [3]), 2900 nM; on TEAD1 (setting [4]) it was 290 nM; at TEAD4 (setting [5]), 30 nM.

Turning to `C=CC(=O)NCc1nn(-c2ccc(C(F)(F)F)cc2)c2nccc([C@@H](O)CO)c12` (stereo in doubt) [Compound 88, N-((4-(1,2-dihydroxyethyl)-1-(4-(trifluoromethyl)phenyl)-1H-pyrazolo[3,4-b]pyridin-3-yl)methyl)acrylamide], the IC50 at TEAD2 [1] was found to be 150 nM; on TEAD3 (setting [3]) it was 2100 nM; at TEAD1 (setting [4]), 80 nM; on TEAD4 (setting [5]), 43 nM.

For the compound `C=CC(=O)NCc1nn(-c2ccc(OC(F)(F)F)cc2)c2nccc(N3CCOCC3)c12` [Compound 77, N-((4-morpholino-1-(4-(trifluoromethoxy)phenyl)-1H-pyrazolo[3,4-b]pyridin-3-yl)methyl)acrylamide], the IC50 was found to be 40 nM on TEAD2 [1], 5700 nM on TEAD3 (setting [3]), 93 nM at TEAD1 (setting [4]) and 65 nM at TEAD4 (setting [5]).

With `C=CC(=O)NCc1nn(-c2ccc(OC(F)(F)F)cc2)c2nccc([C@H](O)CO)c12` [Compound 17, N-[[4-[(1S)-1,2-dihydroxyethyl]-1-[4-(trifluoromethoxy)phenyl]pyrazolo[3,4-b]pyridin-3-yl]methyl]prop-2-enamide], the “NaV1.5 (Phasic) 10 uM concentration % inhibition” value on hNav1.5 sodium channels (10 uM, mean % inhibition, n>=2 cells) was determined as 32.1%. The IC50 at TEAD3 (setting [3]) came out at 770 nM; on TEAD1 (setting [4]), 35 nM; against TEAD2 [2], 32 nM; on TEAD4 (setting [5]) it was 20 nM.

With `C=CC(=O)NCc1nn(-c2ccc(S(F)(F)(F)(F)F)cc2)c2nccc([C@H](O)CO)c12` (stereo in doubt) [Compound 23, N-((4-(1,2-dihydroxyethyl)-1-(4-(pentafluoro-λ^6-sulfanyl)phenyl)-1H-pyrazolo[3,4-b]pyridin-3-yl)methyl)acrylamide], the IC50 against TEAD2 [1] was determined as 66 nM; at TEAD3 (setting [3]) it was 890 nM; on TEAD1 (setting [4]), 43 nM; on TEAD4 (setting [5]) it was 17 nM.

Regarding `C=C(F)C(=O)N1CC(c2nn(-c3ccc(OC(F)(F)F)cc3)c3nccc(CO)c23)C1` [Compound 20, 2-fluoro-1-[3-[4-(hydroxymethyl)-1-[4-(trifluoromethoxy)phenyl]pyrazolo[3,4-b]pyridin-3-yl]azetidin-1-yl]prop-2-en-1-one], the IC50 at hNav1.5 sodium channels (0.01-100 uM, read-out: NaV1.5 (Phasic) IC50) came to 42100 nM.

On to `[2H]C([2H])=C([2H])C(=O)NCc1nn(-c2ccc(OC(F)(F)F)cc2)c2nccc(CO)c12` [Compound 111, 2,3,3-Trideuterio-N-[[4-(hydroxymethyl)-1-[4-(trifluoromethoxy)phenyl]pyrazolo[3,4-b]pyridin-3-yl]methyl]prop-2-enamide], for which the IC50 against TEAD2 [1] worked out at 62 nM; at TEAD3 (setting [3]), 290 nM; on TEAD1 (setting [4]), 16 nM; at TEAD4 (setting [5]) it was 28 nM.

Turning to `C=CC(=O)NCc1nn(-c2cccc(OC(F)(F)F)c2)c2nccc([C@H](O)CO)c12` (stereo in doubt) [Compound 73, N-((4-(1,2-dihydroxyethyl)-1-(3-(trifluoromethoxy)phenyl)-1H-pyrazolo[3,4-b]pyridin-3-yl)methyl)acrylamide], the IC50 stood at 430 nM on TEAD2 [1], 290 nM on TEAD3 (setting [3]), 870 nM on TEAD1 (setting [4]) and 33 nM on TEAD4 (setting [5]).
